Laboratory results published in paper PMC9993459, “A novel selective spleen tyrosine kinase inhibitor SKI-O-703 (cevidoplenib) ameliorates lupus nephritis and serum-induced arthritis in murine models” (Clinical and Experimental Immunology, 2022).
Entries after “also recorded” stand apart in the source; their conditions may differ.

Legend:
Zap70 = target: T1, Zap70 (Homo sapiens, UniProt P43403); experiment: Immunoblotting of Zap70 phosphorylation in TCR-stimulated T cells; format: cell-based; details: 0.3–10 μM
T1 construct: endogenous in cells; host or cells: human peripheral T cells sorted from PBMC, stimulated with anti-CD3 and anti-CD28

Jak2 = Jak2 (Homo sapiens, UniProt O60674); experiment: Kinase assay (LANCE Ultra TR-FRET), Jak2; format: biochemical
Protocol: (§1) Kinase assays were conducted in 384-well plates using LANCE ultra 66 time-resolved fluorescence resonance energy transfer (TR-FRET) methods, according to the manufacturer’s instructions (Perkin-Elmer). In brief, each kinase was pre-incubated with a serially diluted compound for 30 min, incubated with ULight poly-GT peptide substrate and ATP for up to 1 h. Thirty minutes after adding Eu-labeled anti-phosphopeptides Ab diluted in LANCE Detection Buffer, LANCE signals were measured with an EnVision multilabel reader (Perkin-Elmer).

FGFR3 = FGFR3 (Homo sapiens, UniProt P22607); experiment: Kinase assay (LANCE Ultra TR-FRET), FGFR3; format: biochemical
Protocol: as §1

human peripheral T cells = experiment: IL-2 production by activated T cells (ELISA); format: cell-based; details: fold lower than tofacitinib
Protocol: (§2) Supplementary F igure 1. SKI -O-592 and - 703 s p a re TCR- mediated signaling in T cells
(§3) (A) The stru cture of SKI-O-703. (B-D) Human per ipheral T cells sorted fro m human peripheral blood mononuclear cells (B and D) and mouse primary T cells sorted from spleen (C ) wer e stimulated with 5 µ g/ml anti- CD3 and 2 µ g/ml anti- CD28 m Abs in the presence or absence of inhibitors as indicated. Af ter one hour (B) and 24 h ours (C and D) of culture, cells we re assaye d […]
(§4) by immunoblotting (B), FA C S ( C), and ELISA (D). […]
(§5) of Zap70 and its downstream target PLCγ1. It’s effect on the suppression of IL-2 production […]
(§6) Supplementary F igure 2. Gating strategy for FACS of spleen cells
(§7) Erythrocyte-d epleted mo use spleen cells w ere assayed by FACS. Whole live cells were gated as shown: plasma cells (C D19lo/- CD138hi), GC B cells (CD19+ CD138- GL-7h i FA S hi), follicular B cells (CD19+ CD43- CD23hi CD21-), marginal zone B cells (CD19+ C D43- CD21hi CD23lo ), and Tfh cells (CD4+ CXCR5+ PD-1hi).
(§8) Supplementary Figure 3. Differential susceptibility of short-lived and long-lived plasma […]
(§9) When spleen cells from NZB/W mice were assay ed by FACS as in Fig. 5, they were stained intracellularly with anti- Ki-67 mAb to distinguish Ki-67+ dividing cells from Ki-67- non-dividing cells among t h e CD138hi population. […]

mouse primary B cells = experiment: CP670-dilution proliferation assay, LPS-stimulated B cells; format: cell-based; details: 72 h
Protocol: Splenic CD19^+ B cells from C57BL/6 mice were sorted by MACS (Milteny Biotec), stained with 3 μM cell proliferation dye eFluor 670 (CP670; eBioscience), and cultured for 72 h in the presence of either 10 μg/ml LPS (Sigma Aldrich) or 5 μg/ml anti-mouse IgM (Jackson Immuno Research Laboratories), 10 μg/ml anti-CD40 mAb (Biolegend) and 10 ng/ml IL-4 (Peprotech), and assayed by FACS. To detect apoptotic cells, unstimulated cells were cultured for 24 h, stained with Annexin V and 7-aminoactinomycin D (7-AAD), and assayed by FACS.
Figure 2: in vitro effects of SKI-O -703 on the proliferation, survival, and differentiation of B cells. Mouse primary B cells were labeled with CP670, and stimulated with either anti-IgM mAb, CD40L and IL-4 (A) or LPS (B) for 72 h in the presence or absence of SKI-O-703 and tofacitinib at the indicated concentrations; they were then assayed by FACS. (C and D) Mouse primary B cells were cultured as in A and B for 24 h, stained with Annexin V and 7-AAD, and assayed by FACS. Representative FACS profiles and graphs displaying mean Annexin V-positivity are shown. (E) Human primary B cells were stimulated with CpG ODN plus IL-2 (to detect IgM and IgG) or CpG ODN 2006 plus IFN-α (to detect IL-6) in the presence or absence of inhibitors. The culture supernatants were assayed by ELISA. Graphs are expressed as % positivity relative to the controls (without inhibitor). […]

mouse primary T cells = experiment: Annexin V/7-AAD apoptosis assay in TCR-engaged primary T cells; format: cell-based; details: up to 5 μM
Protocol: as §2, §3, §4, §5, §6, §7, §8, §9

Aqueous solubility = format: physicochemical; details: aqueous solution

T1 sequence (P43403 whole entry): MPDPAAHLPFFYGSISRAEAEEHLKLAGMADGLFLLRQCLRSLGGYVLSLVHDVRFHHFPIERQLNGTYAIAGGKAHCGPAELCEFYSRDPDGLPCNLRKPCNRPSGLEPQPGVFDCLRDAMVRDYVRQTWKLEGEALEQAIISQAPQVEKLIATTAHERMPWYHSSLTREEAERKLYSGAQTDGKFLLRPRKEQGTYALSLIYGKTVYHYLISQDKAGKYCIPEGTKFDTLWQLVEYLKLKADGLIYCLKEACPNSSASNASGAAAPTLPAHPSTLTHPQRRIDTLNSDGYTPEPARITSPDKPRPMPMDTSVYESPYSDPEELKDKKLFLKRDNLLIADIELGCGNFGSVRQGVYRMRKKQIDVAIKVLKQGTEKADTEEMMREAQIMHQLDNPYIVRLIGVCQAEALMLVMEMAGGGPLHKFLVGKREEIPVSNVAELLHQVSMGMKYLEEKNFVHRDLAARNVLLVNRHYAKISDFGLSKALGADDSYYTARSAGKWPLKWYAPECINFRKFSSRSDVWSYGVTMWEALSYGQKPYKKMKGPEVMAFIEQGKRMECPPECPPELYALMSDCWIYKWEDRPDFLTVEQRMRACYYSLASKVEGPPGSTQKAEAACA
Chain of FGFR3 (P22607 23-806, species assumed): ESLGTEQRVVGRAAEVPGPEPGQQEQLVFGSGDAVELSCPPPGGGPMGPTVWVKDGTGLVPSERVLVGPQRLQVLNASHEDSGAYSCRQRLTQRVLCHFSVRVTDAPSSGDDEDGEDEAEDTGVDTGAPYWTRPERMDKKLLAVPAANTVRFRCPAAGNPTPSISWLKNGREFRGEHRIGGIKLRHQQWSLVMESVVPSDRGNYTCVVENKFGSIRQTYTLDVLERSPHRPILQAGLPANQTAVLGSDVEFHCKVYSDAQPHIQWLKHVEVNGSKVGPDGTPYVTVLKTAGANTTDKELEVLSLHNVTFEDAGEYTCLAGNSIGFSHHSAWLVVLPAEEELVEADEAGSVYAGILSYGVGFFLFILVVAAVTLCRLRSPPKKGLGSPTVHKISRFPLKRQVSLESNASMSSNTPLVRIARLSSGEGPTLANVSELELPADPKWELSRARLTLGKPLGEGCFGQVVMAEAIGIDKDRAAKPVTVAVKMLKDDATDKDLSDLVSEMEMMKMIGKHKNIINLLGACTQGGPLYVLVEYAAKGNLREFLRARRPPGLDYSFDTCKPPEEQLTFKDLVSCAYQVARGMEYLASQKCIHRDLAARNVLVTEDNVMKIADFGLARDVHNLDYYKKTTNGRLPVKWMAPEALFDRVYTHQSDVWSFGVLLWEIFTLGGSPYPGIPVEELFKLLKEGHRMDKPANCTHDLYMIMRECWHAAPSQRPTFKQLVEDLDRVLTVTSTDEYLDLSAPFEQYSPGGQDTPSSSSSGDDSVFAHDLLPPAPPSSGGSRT
Chain of Jak2 (O60674 whole entry, species assumed): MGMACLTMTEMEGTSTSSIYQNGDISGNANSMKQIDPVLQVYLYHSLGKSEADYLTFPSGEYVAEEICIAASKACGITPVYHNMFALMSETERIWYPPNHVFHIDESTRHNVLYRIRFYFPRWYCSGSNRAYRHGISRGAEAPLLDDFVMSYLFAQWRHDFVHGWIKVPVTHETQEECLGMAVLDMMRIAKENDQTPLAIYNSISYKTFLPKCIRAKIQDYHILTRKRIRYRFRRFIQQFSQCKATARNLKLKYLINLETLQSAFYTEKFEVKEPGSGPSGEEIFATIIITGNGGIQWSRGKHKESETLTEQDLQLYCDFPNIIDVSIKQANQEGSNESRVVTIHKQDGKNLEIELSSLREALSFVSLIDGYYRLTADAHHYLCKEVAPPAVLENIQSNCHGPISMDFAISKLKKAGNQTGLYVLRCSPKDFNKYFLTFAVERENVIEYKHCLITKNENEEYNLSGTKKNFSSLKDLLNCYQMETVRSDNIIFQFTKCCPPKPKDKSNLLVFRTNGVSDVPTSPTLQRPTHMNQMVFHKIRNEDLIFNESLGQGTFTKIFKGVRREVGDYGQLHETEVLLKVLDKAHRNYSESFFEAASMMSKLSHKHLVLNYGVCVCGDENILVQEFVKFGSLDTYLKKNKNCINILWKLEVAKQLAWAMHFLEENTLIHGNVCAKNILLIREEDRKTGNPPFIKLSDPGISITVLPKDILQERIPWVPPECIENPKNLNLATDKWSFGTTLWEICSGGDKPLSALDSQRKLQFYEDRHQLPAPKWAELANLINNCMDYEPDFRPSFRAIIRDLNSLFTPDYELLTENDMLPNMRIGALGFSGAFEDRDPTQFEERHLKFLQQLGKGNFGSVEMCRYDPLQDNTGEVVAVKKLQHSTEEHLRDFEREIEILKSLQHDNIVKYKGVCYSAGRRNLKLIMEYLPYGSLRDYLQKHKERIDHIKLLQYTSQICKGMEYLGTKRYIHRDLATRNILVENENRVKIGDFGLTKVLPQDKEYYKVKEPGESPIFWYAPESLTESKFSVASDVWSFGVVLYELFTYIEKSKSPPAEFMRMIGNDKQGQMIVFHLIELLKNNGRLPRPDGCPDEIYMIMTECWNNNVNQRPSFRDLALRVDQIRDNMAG

SMILES	Phosphorylation of Zap70 and its downstream target PLCγ1 (Zap70)	Ratio to Syk (Jak2) (Jak2; IC50 ratio to Syk)	IC50 (Jak2; kinase activity, TR-FRET) [µM]	Ratio to Syk (FGFR3) (FGFR3; IC50 ratio to Syk)	IC50 (FGFR3; kinase activity, TR-FRET) [µM]	Potency on IL-2 production relative to tofacitinib (IC50) (human peripheral T cells) [fold]	Concentration required to significantly inhibit LPS-induced proliferation (mouse primary B cells)	Proportions of early and late apoptotic T cells (mouse primary T cells)	Solubility (Aqueous solubility)
Cc1nn(-c2ccnc(Nc3ccc4c(c3)c(C(=O)C3CC3)cn4C)n2)cc1CN1C[C@H](O)CO1 [SKI-O-592]	did not inhib it phosphorylation; also recorded: failed to affect	302	1.86	919	5.66	25	–	–	–
CS(=O)(=O)O.CS(=O)(=O)O.Cc1nn(-c2ccnc(Nc3ccc4c(c3)c(C(=O)C3CC3)cn4C)n2)cc1CN1C[C@H](O)CO1 [SKI-O-703, (S)-cyclopropyl(5-((4-(4-((4-hydroxyisoxazolidin-2-yl)methyl)-3-methyl-1H-pyrazol-1-yl)pyrimidin-2-yl)amino)-1-methyl-1H-indol-3-yl)methanone dimesylate]	–	–	–	–	–	–	at least 5 μM	did not promote apoptotic cell death; also recorded: failed to increase	soluble in aqueous solution
